The subject of data set [1] is rats. The conditions noted are these: rat, in vivo.
In data set [2] the test system is rats. Nature of the data set: 28-day repeated dose study in rats with mass spectrometry-based plasma metabolite profiling (GC-MS, LC-MS, SPE-LC-MS); treatment ratios versus control. As to conditions: plasma.
The mark [3] stands for this setting: male rats, day 28, high dose, Table 8a direct tubular effect.
The mark [4] stands for this setting: male rats, day 28, high dose, Table 8b direct tubular effect.
Where [5] appears, read: male rats, day 7, high dose, Table 1c diuretic effect.
The mark [6] stands for this setting: male rats, day 7, high dose, Table 6b ACE inhibitor induced like toxicity.
Setting [7] is: male rats, day 7, high dose, Table 1d diuretic effect.
Setting [8] is: male rats, day 14, high dose, Table 1c diuretic effect.
The mark [9] stands for this setting: male rats, day 14, high dose, Table 6b ACE inhibitor induced like toxicity.
Where [10] appears, read: male rats, day 14, high dose, Table 1d diuretic effect.
The mark [11] stands for this setting: male rats, day 28, high dose, Table 6b ACE inhibitor induced like toxicity.
[12] abbreviates: male rats, day 28, high dose, Table 1d diuretic effect.
Setting [13] is: female rats, day 14, high dose, Table 2a glomerular-tubular defect.
[14] abbreviates: female rats, day 14, high dose, Table 2b glomerular-tubular defect.
[15] abbreviates: female rats, day 28, high dose, Table 2a glomerular-tubular defect.
The mark [16] stands for this setting: female rats, day 28, high dose, Table 2b glomerular-tubular defect.
Where [17] appears, read: male rats, day 7, high dose, Table 2d glomerular-tubular defect.
Where [18] appears, read: male rats, day 14, high dose, Table 2c glomerular-tubular defect.
[19] abbreviates: male rats, day 14, high dose, Table 2d glomerular-tubular defect.
The mark [20] stands for this setting: male rats, day 28, high dose, Table 2c glomerular-tubular defect.
[21] abbreviates: male rats, day 28, high dose, Table 2d glomerular-tubular defect.
Where [22] appears, read: male rats, day 28, high dose, Table 1c diuretic effect.
Setting [23] is: female rats, day 28, high dose, Table 1a diuretic effect.
[24] abbreviates: female rats, day 28, high dose, Table 1b diuretic effect.
[25] abbreviates: female rats, day 28, high dose, Table 5a tubular necrosis.
Setting [26] is: female rats, day 28, high dose, Table 5b tubular necrosis.

Read-outs that look alike come from different tables or passages of the source. Marks after values point to notes of the source that are not given here.

Here are results for six compounds from patent US20150011423A1, “MEANS AND METHODS FOR ASSESSING KIDNEY TOXICITY” (BASF SE, priority 2011, published 2015).

As for `Oc1ccc(O)cc1` [Hydroquinone], in data set [1], the “Leucine, treatment ratio versus control” value is 1.23 *; the “Lysophosphatidylethanolamine (C22:0), treatment ratio versus control” value is on record as 1.26 *; the “Ornithine, treatment ratio versus control” value was 1.24 *. In data set [2] (setting [3]), the “Glycerol-3-phosphate, polar fraction, treatment ratio versus control” value is 1.64 *; the “Isoleucine, treatment ratio versus control” value is on record as 1.2 *; the “TAG No 02, treatment ratio versus control” value was 1.91 *; the “Threonine, treatment ratio versus control” value is listed as 1.03. For the same compound, in data set [2] (setting [4]), the “14-Methylhexadecanoic acid, treatment ratio versus control” value came out at 0.81; the “16-Methylheptadecanoic acid, treatment ratio versus control” value stood at 0.76; the “18-Hydroxy-11-deoxycorticosterone, treatment ratio versus control” value is recorded as 0.23 *; the “Citrate, treatment ratio versus control” value was 0.82 *. In addition, in data set [2] (setting [4]), the “DAG (C18:1, C18:2), treatment ratio versus control” value is on record as 0.43 *; the “Elaidic acid (C18:trans[9]1), treatment ratio versus control” value was 0.84; the “Isopalmitic acid (C16:0), treatment ratio versus control” value was found to be 0.62; the “Ketoleucine, treatment ratio versus control” value is recorded as 0.75 *. Besides, in data set [2] (setting [4]), the “Linolenic acid (C18:cis[9,12,15]3), treatment ratio versus control” value is given as 0.56 *; the “Lysophosphatidylcholine (C18:0), treatment ratio versus control” value is reported as 0.99 *; the “Oleic acid (C18:cis[9]1), treatment ratio versus control” value was 0.75 *; the “Palmitoleic acid (C16:cis[9]1), treatment ratio versus control” value was 0.76 *. Also, in data set [2] (setting [4]), the “TAG (C16:0, C16:1), treatment ratio versus control” value is recorded as 0.4 * and the “trans-4-Hydroxyproline, treatment ratio versus control” value is recorded as 0.87 *.

`NCCCC[C@H](N[C@@H](CCc1ccccc1)C(=O)O)C(=O)N1CCC[C@H]1C(=O)O` [Lisinopril]: the “1,5-Anhydrosorbitol, treatment ratio versus control” value in data set [1] was 1.22 *; in data set [2] (male rats, day 14, high dose, Table 6a ACE inhibitor induced like toxicity), 1.2 *; in data set [2] (male rats, day 28, high dose, Table 6a ACE inhibitor induced like toxicity) it was 1.53 *. For the same compound, the “Threonine, treatment ratio versus control” value in data set [2] (setting [5]) is listed as 0.99^. In addition, the “Lysine, treatment ratio versus control” value in data set [2] (male rats, day 7, high dose, Table 6a ACE inhibitor induced like toxicity) is reported as 0.92^. In addition, the results for the “Cytosine, treatment ratio versus control” value in data set [2] (setting [6]), in data set [2] (setting [9]) and in data set [2] (setting [11]) were 0.97^, 0.89 * and 1, respectively. The “Glutamate, treatment ratio versus control” value in data set [2] (setting [6]) is 0.94 *; in data set [2] (setting [7]) it was 0.94 *; in data set [2] (setting [9]), 0.85 *; in data set [2] (setting [10]), 0.85 *; in data set [2] (setting [11]), 0.87 *; in data set [2] (setting [12]) it was 0.87 *. Moreover, the “Lysophosphatidylcholine (C20:4), treatment ratio versus control” value in data set [2] (setting [7]) was 0.97^; in data set [2] (setting [10]), 0.94^; in data set [2] (setting [12]), 0.9 *. The “Malate, treatment ratio versus control” value in data set [2] (setting [7]) is listed as 0.75 *; in data set [2] (setting [10]), 0.6 *; in data set [2] (setting [12]), 0.65 *. The “Ceramide (d18:1, C24:0), treatment ratio versus control” value in data set [2] (setting [8]) is recorded as 1.19 *. In addition, in data set [2] (setting [8]), the “Choline plasmalogen No 03, treatment ratio versus control” value is reported as 1.1 *. Also, the “Sphingomyelin (d18:2, C16:0), treatment ratio versus control” value in data set [2] (setting [8]) was 1.38 *.

Take `CC(C)(S)[C@@H](N)C(=O)O` [Penicillamine]: in data set [1], the “3-Indoxylsulfate, treatment ratio versus control” value is listed as 1.41 *; the “Adrenaline (Epinephrine), treatment ratio versus control” value is listed as 1.14^; the “Histamine, treatment ratio versus control” value was 1.36^; the “Threonic acid, treatment ratio versus control” value is on record as 1.47 *. Further, in data set [2] (setting [13]), the “3-Hydroxyindole, treatment ratio versus control” value is on record as 0.87^; the “3-Indoxylsulfate, treatment ratio versus control” value is 0.93^; the “Creatinine, treatment ratio versus control” value was 1.69 *; the “Elaidic acid (C18:trans[9]1), treatment ratio versus control” value came out at 1.2. Moreover, in data set [2] (setting [14]), the “Adrenaline (Epinephrine), treatment ratio versus control” value is reported as 0.55 *; the “Glucosamine, treatment ratio versus control” value is reported as 0.75^; the “Mannosamine, treatment ratio versus control” value is 0.64 *. In data set [2] (setting [15]), the “3-Hydroxyindole, treatment ratio versus control” value is given as 1.53 * and the “Elaidic acid (C18:trans[9]1), treatment ratio versus control” value is on record as 1.35 *. In data set [2] (setting [16]), the “Glucosamine, treatment ratio versus control” value is on record as 0.48 *; the “Histamine, treatment ratio versus control” value is on record as 0.52 *; the “Mannosamine, treatment ratio versus control” value is recorded as 0.5 *. Moreover, in data set [2] (setting [17]), the “4-Hydroxy-3-methoxyphenylglycol (HMPG), treatment ratio versus control” value is given as 0.91 *; the “Cysteine, treatment ratio versus control” value was 0.46 *; the “Isopalmitic acid (C16:0), treatment ratio versus control” value is 0.75 *; the “Metanephrine, treatment ratio versus control” value is recorded as 0.83 *. Also, in data set [2] (setting [17]), the “Normetanephrine, treatment ratio versus control” value was 0.79 *. Further, in data set [2] (setting [18]), the “Creatine, treatment ratio versus control” value is reported as 1.35 *; the “Creatinine, treatment ratio versus control” value is 1.8 *; the “Threonic acid, treatment ratio versus control” value is given as 1.4 *. In data set [2] (setting [19]), the “4-Hydroxy-3-methoxyphenylglycol (HMPG), treatment ratio versus control” value was 0.84 *; the “Cysteine, treatment ratio versus control” value was 0.51 *; the “Metanephrine, treatment ratio versus control” value is recorded as 0.43 *; the “Normetanephrine, treatment ratio versus control” value is on record as 0.66 *. For the same compound, in data set [2] (setting [20]), the “Creatine, treatment ratio versus control” value is 1.27 *; the “Glycerol-3-phosphate, polar fraction, treatment ratio versus control” value is 1.4 *; the “Lysophosphatidylcholine (C18:2), treatment ratio versus control” value is 1.1; the “Threonic acid, treatment ratio versus control” value is recorded as 1.7 *. Moreover, in data set [2] (setting [21]), the “4-Hydroxy-3-methoxyphenylglycol (HMPG), treatment ratio versus control” value is 0.79 *; the “Cysteine, treatment ratio versus control” value was 0.85 *; the “Metanephrine, treatment ratio versus control” value was 0.68 *; the “Normetanephrine, treatment ratio versus control” value is on record as 0.68 *.

As to `Cn1cnc2c1c(=O)[nH]c(=O)n2C` [Theobromine], in data set [1], the “Ceramide (d18:1, C24:0), treatment ratio versus control” value was 1.33 * and the “Choline plasmalogen No 03, treatment ratio versus control” value is 1.08 *. In data set [2] (setting [5]), the “Ceramide (d18:1, C24:0), treatment ratio versus control” value is 0.84^ and the “Choline plasmalogen No 02, treatment ratio versus control” value is 1.38 *. In addition, in data set [2] (setting [7]), the “Glutamate, treatment ratio versus control” value is 0.74 * and the “Lysophosphatidylcholine (C20:4), treatment ratio versus control” value is recorded as 0.8 *. Moreover, in data set [2] (setting [8]), the “Ceramide (d18:1, C24:0), treatment ratio versus control” value is 1.35 *; the “Choline plasmalogen No 03, treatment ratio versus control” value worked out at 1.1; the “Threonine, treatment ratio versus control” value is 1.53 *. Besides, in data set [2] (setting [10]), the “Glutamate, treatment ratio versus control” value is given as 0.94 * and the “Lysophosphatidylcholine (C20:4), treatment ratio versus control” value is 0.86 *. In data set [2] (setting [22]), the “Ceramide (d18:1, C24:1), treatment ratio versus control” value was 1.52^; the “Choline plasmalogen No 03, treatment ratio versus control” value is recorded as 1.1 *; the “Sphingomyelin (d18:2, C16:0), treatment ratio versus control” value was 1.9 *. In addition, in data set [2] (setting [12]), the “Glutamate, treatment ratio versus control” value is given as 0.87 * and the “Lysophosphatidylcholine (C20:4), treatment ratio versus control” value is given as 0.8 *.

In the case of `Cn1c(=O)c2[nH]cnc2n(C)c1=O` [Theophylline], in data set [1], the “Glutamate, treatment ratio versus control” value is 1.04^; the “Glycine, treatment ratio versus control” value is reported as 1.32 *; the “Histidine, treatment ratio versus control” value was 1.25 *; the “Valine, treatment ratio versus control” value is 1.29 *. In data set [2] (setting [23]), the “Pantothenic acid, treatment ratio versus control” value is 1.72 *; the “Proline, treatment ratio versus control” value is recorded as 1.57; the “Threonic acid, treatment ratio versus control” value is listed as 1.14; the “trans-4-Hydroxyproline, treatment ratio versus control” value is on record as 1.91 *. Also, in data set [2] (setting [24]), the “18-Hydroxy-11-deoxycorticosterone, treatment ratio versus control” value is 0.5 *; the “Creatinine, treatment ratio versus control” value is recorded as 0.8 *; the “Hippuric acid, treatment ratio versus control” value is 0.28 *. Besides, in data set [2] (setting [5]), the “Ceramide (d18:1, C24:0), treatment ratio versus control” value is given as 0.92^ and the “Ceramide (d18:1, C24:1), treatment ratio versus control” value was 0.75^. Also, in data set [2] (setting [7]), the “Glutamate, treatment ratio versus control” value was 0.64 *; the “Lysophosphatidylcholine (C20:4), treatment ratio versus control” value was 0.71 *; the “Malate, treatment ratio versus control” value is on record as 0.76 *. Also, in data set [2] (setting [8]), the “Ceramide (d18:1, C24:0), treatment ratio versus control” value is on record as 1.56 * and the “Ceramide (d18:1, C24:1), treatment ratio versus control” value was 1.94 *. For the same compound, in data set [2] (setting [10]), the “Lysophosphatidylcholine (C20:4), treatment ratio versus control” value is given as 0.87 * and the “Malate, treatment ratio versus control” value is reported as 0.9. Also, in data set [2] (setting [22]), the “Ceramide (d18:1, C24:0), treatment ratio versus control” value is 0.95; the “Ceramide (d18:1, C24:1), treatment ratio versus control” value came to 1.17; the “Choline plasmalogen No 02, treatment ratio versus control” value is given as 1; the “Choline plasmalogen No 03, treatment ratio versus control” value was determined as 1.03. In data set [2] (setting [12]), the “Glutamate, treatment ratio versus control” value is reported as 0.74 *; the “Lysophosphatidylcholine (C20:4), treatment ratio versus control” value was 0.81 *; the “Malate, treatment ratio versus control” value is reported as 0.72 *.

Regarding `NC[C@H]1O[C@H](O[C@H]2[C@H](O)[C@@H](O[C@H]3O[C@H](CO)[C@@H](O)[C@H](N)[C@H]3O)[C@H](N)C[C@@H]2N)[C@H](N)C[C@@H]1O` [Tobramycin s.c., Tobramycin], in data set [1], the “Leucine, treatment ratio versus control” value is 1.26 *. In data set [2] (setting [25]), the “Docosahexaenoic acid (C22:cis[4,7,10,13,16,19]6), treatment ratio versus control” value was 1.05 *; the “Docosapentaenoic acid (C22:cis[7,10,13,16,19]5), treatment ratio versus control” value is given as 1.56 *; the “Eicosanoic acid (C20:0), treatment ratio versus control” value was determined as 1.05; the “Glycerol, lipid fraction, treatment ratio versus control” value is recorded as 1.2 *. In addition, in data set [2] (setting [25]), the “Phosphate (inorganic and organic phosphates), treatment ratio versus control” value is given as 1.3 *. In data set [2] (setting [26]), the “Hippuric acid, treatment ratio versus control” value is given as 0.14 * and the “Lactate, treatment ratio versus control” value is 0.64 *.
